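The compound was tested at five concentrations on cells cultured in 96-well plates, with a 48-hour exposure period. Abbreviation: GI50, concentration required for 50% inhibition of growth.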 Active and inactive are the calls of the source. Cut-off read from the data, not from the text of the source: active = GI50 up to about 1.1 µM and inactive = higher.
Experiments:
Test in all cases: NCI-60 cell line screen, 48 h
[1] = tested on: EKVX
[2] = tested on: OVCAR-5
[3] = tested on: OVCAR-4
[4] = tested on: RXF 393
[5] = tested on: IGROV-1
[6] = tested on: A549
[7] = tested on: HCT-15
[8] = tested on: UACC-62
[9] = tested on: NCI-H522
[10] = tested on: MDA-N
[11] = tested on: COLO 205
[12] = tested on: MCF7
[13] = tested on: A498
[14] = tested on: Malme-3M
[15] = tested on: U-251
[16] = tested on: K562
[17] = tested on: PC-3
[18] = tested on: NCI/ADR-RES
[19] = tested on: NCI-H460
[20] = tested on: SR

Row | SMILES | GI50 [1] | GI50 [2] | GI50 [3] | GI50 [4] | GI50 [5] | GI50 [6] | GI50 [7] [µM] | GI50 [8] | GI50 [9] | GI50 [10] | GI50 [11] | GI50 [12] | GI50 [13] | GI50 [14] | GI50 [15] | GI50 [16] | GI50 [17] | GI50 [18] | GI50 [19] | GI50 [20]
1 | CC(=O)Oc1cc2c(cc1OCC(F)(F)F)[C@H]1CC[C@]3(C)[C@@H](OC(C)=O)CC[C@H]3[C@@H]1CC2=O | 22.8 µM (inactive) | 19.8 µM (inactive) | 17.5 µM (inactive) | 13.9 µM (inactive) | 18.7 µM (inactive) | 17.6 µM (inactive) | 16.6 | 12.2 µM (inactive) | 20 µM (inactive) | 24.1 µM (inactive) | 30.8 µM (inactive) | 18.9 µM (inactive) | 6.18 µM (inactive) | 16.8 µM (inactive) | 16.4 µM (inactive) | 16.6 µM (inactive) | 14.5 µM (inactive) | 15.3 µM (inactive) | 26.9 µM (inactive) | 20.7 µM (inactive)
2 | CCCCCCCCCCCCC1N=C(N)N2CCCC2=C1C(=O)OC (stereo not given) | 14.7 µM (inactive) | 6.25 µM (inactive) | 2.31 µM (inactive) | 47.8 µM (inactive) | 3.22 µM (inactive) | 8.67 µM (inactive) | 1.79 | 1.74 µM (inactive) | 1.76 µM (inactive) | 1.95 µM (inactive) | 1.95 µM (inactive) | 1.77 µM (inactive) | 22.6 µM (inactive) | 1.8 µM (inactive) | 1.65 µM (inactive) | 1.38 µM (inactive) | 1.62 µM (inactive) | 5.92 µM (inactive) | 1.79 µM (inactive) | 2.13 µM (inactive)
3 | N/C(=N\N=C\c1nc2ccccc2o1)c1cnccn1 | > 100 µM (inactive) | > 100 µM (inactive) | > 100 µM (inactive) | 49.5 µM (inactive) | > 100 µM (inactive) | > 100 µM (inactive) | > 100 | > 100 µM (inactive) | > 100 µM (inactive) | > 100 µM (inactive) | > 100 µM (inactive) | > 100 µM (inactive) | > 100 µM (inactive) | 1.71 µM (inactive) | 35.6 µM (inactive) | > 100 µM (inactive) | > 100 µM (inactive) | > 100 µM (inactive) | 72.9 µM (inactive) | > 100 µM (inactive)
4 | COC(=O)C1C(=O)C=CN([C@H](C)c2ccccc2)[C@@H]1Cc1ccc(OC)c(OCc2ccccc2)c1I (stereo not given in full) | 23.6 µM (inactive) | 27.4 µM (inactive) | 8.83 µM (inactive) | 11.8 µM (inactive) | 10.2 µM (inactive) | 15.6 µM (inactive) | 7.1 | 12.3 µM (inactive) | 13.6 µM (inactive) | 15.6 µM (inactive) | 14.9 µM (inactive) | 17.6 µM (inactive) | 14.5 µM (inactive) | 24.4 µM (inactive) | 17.5 µM (inactive) | 18.2 µM (inactive) | 13.8 µM (inactive) | 11.1 µM (inactive) | 15.5 µM (inactive) | 3.14 µM (inactive)
5 | CCCCCCCCCCN(CCCCCCCCCC)C(=O)COc1c2cc(C(C)(C)C)cc1Cc1cc(C(C)(C)C)cc(c1OCC(=O)N(CCCCCCCCCC)CCCCCCCCCC)Cc1cc(C(C)(C)C)cc(c1OCC(=O)N(CCCCCCCCCC)CCCCCCCCCC)Cc1cc(C(C)(C)C)cc(c1OCC(=O)N(CCCCCCCCCC)CCCCCCCCCC)C2 | 12.1 µM (inactive) | 13.3 µM (inactive) | 10.4 µM (inactive) | 9.68 µM (inactive) | 12.4 µM (inactive) | 16 µM (inactive) | 8.77 | 12.6 µM (inactive) | 3.18 µM (inactive) | 12.2 µM (inactive) | 15.8 µM (inactive) | 3.59 µM (inactive) | 15.5 µM (inactive) | 15 µM (inactive) | 11.2 µM (inactive) | 1.9 µM (inactive) | 9.93 µM (inactive) | 14.8 µM (inactive) | 12.6 µM (inactive) | 2.96 µM (inactive)
6 | Cc1c(C)c2c(c(N)c1C#N)C(=O)N(CCN1CCNCC1)C2=O | 39 µM (inactive) | 31.1 µM (inactive) | 40.2 µM (inactive) | 22.4 µM (inactive) | 34.7 µM (inactive) | 29.6 µM (inactive) | 35.6 | 23.2 µM (inactive) | 17.9 µM (inactive) | 40.9 µM (inactive) | 22.5 µM (inactive) | 34.8 µM (inactive) | 22.2 µM (inactive) | 22.6 µM (inactive) | 43.7 µM (inactive) | 51.6 µM (inactive) | 18.4 µM (inactive) | 33.4 µM (inactive) | 29.9 µM (inactive) | 25.6 µM (inactive)
7 | CC1(C)[C@@H]2CC[C@@]1(C)C1(S[S+]1[O-])C21Cc2ccccc2C1 (stereo not given in full) | 23.8 µM (inactive) | 20.6 µM (inactive) | 15.6 µM (inactive) | 18.5 µM (inactive) | 17.2 µM (inactive) | 36.8 µM (inactive) | 22.6 | 22.2 µM (inactive) | 15.8 µM (inactive) | 17.1 µM (inactive) | 30.6 µM (inactive) | 22.1 µM (inactive) | 28.7 µM (inactive) | 38.8 µM (inactive) | 24.9 µM (inactive) | 17.4 µM (inactive) | 17.9 µM (inactive) | 25.6 µM (inactive) | 21.5 µM (inactive) | 14.5 µM (inactive)

From ChEMBL document CHEMBL1201862, “PubChem BioAssay data set” (2004)
